Assay results published in patent US20260174784A1, “Molecular Signatures that Predict Risk for Development of Hepatic Encephalopathy” (The Regents of the University of California, priority 2022, published 2026).

Columns and labels:
hepatic encephalopathy = assay: HE treatment of readmitted TIPS participant 11_a (case course); format: in vivo, human; conditions: for response to HE treatment: first readmission 9 days post-TIPS, lactulose and rifaximin given together
Excerpt: After the data were collected, the hospital courses of the two participants who were readmitted during the study period were examined. Participant 11_a (FIG. 6C) was a person with a history of cryptogenic cirrhosis with banded esophageal varices but with no prior history of HE. They underwent TIPS procedure due to progressively worsening ascites refractory to diuretic therapy and need for intermittent paracentesis. They were readmitted to the medical intensive care unit 9 days post-TIPS with obtundation requiring intubation for airway protection. Blood was drawn on the day of admission before initiation of hepatic encephalopathy treatment (pre-HET) (FIG. 6C). […] Blood was collected for analysis on the day after treatment initiation (post-HET) (FIG. 6C). They were discharged 9 days later. However, they were readmitted within 72 hours for altered mental status. […] Their encephalopathy resolved after continuous polyethylene glycol infusion via nasojejunal tube, but was again admitted 352 days post-TIPS for HE in the setting of urosepsis.

[1] = molecular target: T1, farnesoid X receptor (FXR) (Homo sapiens, UniProt Q96RI1); conditions: ligand-mediated nuclear receptor; literature ref 48; cited from earlier work
T1 sequence (Q96RI1 1-486): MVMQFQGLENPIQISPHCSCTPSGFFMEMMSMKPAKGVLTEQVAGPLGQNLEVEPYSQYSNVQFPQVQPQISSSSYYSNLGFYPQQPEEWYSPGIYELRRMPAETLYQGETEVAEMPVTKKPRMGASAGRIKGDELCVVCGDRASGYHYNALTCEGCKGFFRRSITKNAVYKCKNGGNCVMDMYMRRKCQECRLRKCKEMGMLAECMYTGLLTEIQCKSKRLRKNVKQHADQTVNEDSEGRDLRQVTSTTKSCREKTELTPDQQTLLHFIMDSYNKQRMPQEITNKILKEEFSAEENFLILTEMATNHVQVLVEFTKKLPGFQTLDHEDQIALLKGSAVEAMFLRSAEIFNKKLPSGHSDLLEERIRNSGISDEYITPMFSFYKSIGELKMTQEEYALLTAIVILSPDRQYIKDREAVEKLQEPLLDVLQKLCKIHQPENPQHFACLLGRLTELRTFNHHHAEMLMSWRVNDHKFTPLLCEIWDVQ

[2] = system: neuronal oxidative damage induced by bilirubin; conditions: supplementation with GUDCA; previous studies in animal models; cited from earlier work

For CO[C@H]1/C=C/O[C@@]2(C)Oc3c(C)c(O)c4c(O)c(c5c(nc6cc(C)ccn65)c4c3C2=O)NC(=O)/C(C)=C\C=C\[C@H](C)[C@H](O)[C@@H](C)[C@@H](O)[C@@H](C)[C@H](OC(C)=O)[C@@H]1C [rifaximin], the “response to HE treatment” value (hepatic encephalopathy) was “responded well”.

With OC[C@H]1O[C@@H](O[C@@H]2[C@@H](CO)OC(O)(CO)[C@H]2O)[C@H](O)[C@@H](O)[C@H]1O (mixture of isomers) [lactulose] the “response to HE treatment” value (hepatic encephalopathy) was “responded well”.

For polyethylene glycol, the encephalopathy outcome (hepatic encephalopathy; second readmission, continuous infusion via nasojejunal tube) was “resolved”.

For C[C@H](CCC(=O)NCC(=O)O)[C@H]1CC[C@H]2[C@@H]3[C@@H](O)C[C@@H]4C[C@H](O)CC[C@]4(C)[C@H]3CC[C@]12C [GUDCA, glycoursodeoxycholic acid], the “effect on farnesoid X receptor (FXR)” value [1] is given as “directly inhibited” and the “neuronal oxidative damage induced by bilirubin” value [2] is given as “can be inhibited”.
